Results reported in patent publication US20110171144A1, “Functional Micelles for Hard Tissue Targeted Delivery of Chemicals” (priority 2008, published 2011).
In brackets after ≈: the same amount, converted by molar mass.

Legend:
[1] = Hornby et al. (2001); cited from earlier work
S. Mutans UA159 = test: In vitro inhibition of S. Mutans biofilm growth on HA discs; type: cell-based, Streptococcus Mutans; conditions: 48 hours incubation, compared to controls, FIG. 3
Method: S. Mutans UA159 was used in this study. S. Mutans were stored frozen at −80° C. A fresh culture was prepared before each experiment. A single colony of S. Mutans was inoculated into 3 mL of THYE (Todd-Hewitt Yeast Extract) medium and allow to growth statically overnight at 37° C. with 5% CO2. The overnight culture was diluted to a density of 5×10^4 CFU/ml with chemically defined biofilm media (CDM) (Biswas et al. (2007) J. Bacteriol., 189:6521-6531).
Autoclaved HA discs (7 mm×1.8 mm) were incubated with different micelle solutions, a farnesol solution in ethanol, or CDM in a 24-well plate for 1 hour to achieve maximum loading. The discs were then removed from the wells and vortex washed twice with saline for 10 seconds. The discs were subsequently washed with culture media to remove unbounded micelle. For the farnesol ethanol solution group, discs were washed twice with ethanol and then washed with saline. The HA discs were then transferred to 1 mL of diluted S. Mutans, and cultured statically for 48 hours to allow biofilm growth at 37° C. with 5% CO2.
On day three post bacteria inoculation, the HA discs were dip-washed 3 times with THYE media to remove loosely attached bacteria and then placed in 1 mL of THYE media. The surfaces of HA discs were gently scraped with a sterile spatula to harvest adherent cells. […]

[2] = Binding potential and rate of bone-targeting micelles on hydroxyapatite (HA)
Method: The solvent was evaporated in vacuum to yield a polymeric film on the wall of the flask. The thin polymeric film formed was then hydrated with a 10 mM phosphate buffered saline solution (PBS, pH 7.4) at 50° C. to set the micelles. The micelles were prepared as the method mentioned above for bone-targeting micelles: 0.9% […], 0.1% ALN-[…], 0.02% RB-[…]; for controls: 1% […], 0.02% RB-[…]). […] The mixtures were allowed to be gently agitated for 1, 5, 10, or 30 minutes at room temperature. […] The spectra of the supernatant was recorded on a UV-Visible spectrophotometer and compared with that of the initial micelle solution. Micelle containing RB-[…] but no ALN-[…] and RB were used as controls in this experiment.

CC(C)=CCCC(C)=CCCC(C)=CCO [farnesol, 3,7,11-trimethyl-2,6,10-dodecatrien-1-ol]
water solubility [1]: 1200 µM (≈ 267 µg/mL) | inhibition of S. Mutans biofilm formation on HA discs (S. Mutans UA159): did not show inhibition

Pluronic® 123-alendronate conjugate [ALN-P123]
bound to HA ([2]; 10 minutes incubation, FIG. 4B): 45% | bound to HA (ultimate binding equilibrium) ([2]; 30 minutes incubation): 55%

CCN(CC)c1ccc2c(-c3ccccc3C(=O)O)c3ccc(=[N+](CC)CC)cc-3oc2c1.[Cl-] [RB, Rhodamine B]
binding to HA (in words) ([2]; 30 minutes incubation, FIG. 4A): slightly bound
